Measurements reported in paper PMC7215373, “Design, Synthesis, and Anticancer Evaluation of Novel Indole Derivatives of Ursolic Acid as Potential Topoisomerase II Inhibitors” (International Journal of Molecular Sciences, 2020).

Legend:
SMMC-7721 cells [1] = test: MTT cytotoxicity assay, SMMC-7721; format: cell-based, human; conditions: 48 h exposure
Summary of the method: (§1)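 Cells in DMEM with 10% FBS were seeded and allowed to attach for 24 h. They were then exposed to compound dilutions for 48 h at 37 °C, 5% CO2. Viability was measured by MTT (4 h), with formazan dissolved in DMSO and read at 570 nm.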

HepG2 cells = test: MTT cytotoxicity assay, HepG2; format: cell-based, human; conditions: 48 h exposure
Summary of the method: as §1

Human Topoisomerase IIα = molecular target: T1, Human Topoisomerase IIα (Homo sapiens, UniProt P11388); test: Topoisomerase II relaxation assay (supercoiled pBR322); format: biochemical
T1 construct: purchased USB, Affymetrix, Waltham, MA, USA
Summary of the method: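 Compounds (in 2% v/v DMSO) pre-incubated 15 min with human Topo IIα and supercoiled pBR322 DNA, then reacted 30 min at 37 °C and stopped with 7 mM EDTA. Relaxed vs supercoiled DNA resolved on 1% TAE-agarose, ethidium bromide-stained and imaged. Etoposide served as positive control.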

SMMC-7721 cells [2] = test: ROS generation assay (DCFH-DA, flow cytometry); format: cell-based, human; conditions: 48 h, control 3.97%
Procedure: Reactive oxygen species (ROS), which can exert oxidative stress to cells and lead to disturbances in mitochondrial membrane potential, are important mediators for the induction of apoptosis in many cancer cells. To determine whether the apoptosis induced by compound 5f was associated with intracellular ROS level, SMMC-7721 cells treated with different concentrations of 5f were stained with the fluorescent probe DCFH-DA and analyzed by flow cytometry.
ROS generation assay was performed by using the reactive oxygen species assay kit (Beyotime Biotech., Shanghai, China). Intracellular ROS generation was tested through dichlorodihydro fluorescein diacetate (DCFH-DA) assay. DCFH-DA is taken up by SMMC-7721 cells, and then activated by esterase-mediated cleavage of acetate to form dichlorodihydro fluorescein (DCFH), which is trapped in the cells. DCFH is converted to fluorescein DCF in the presence of ROS. SMMC-7721 cells were seeded in six-well plates and incubated with different concentrations of compound 5f for 48 h. After removing the compound solution, cells were treated with 10 μM of DCFH-DA at 37 °C for 20 min. Subsequently, the cells were washed with PBS for three times and then exposed to light. Immediately after light exposure, the fluorescence intensity of dichlorofluorescein (DCF) was measured with excitation at 488 nm and emission at 525 nm by a flow cytometry (Becton-Dickinson FACSCalibur, Franklin Lakes, NJ, USA).

SMMC-7721 cells [3] = test: JC-1 mitochondrial membrane potential assay; format: cell-based, human; conditions: 24 h, control 1.29%
Procedure: It has been widely believed that intracellular ROS accumulation could decrease mitochondrial membrane potential (ΔΨm), which is a characteristic phenomenon of early apoptosis. To investigate the correlation between ΔΨm and apoptosis induced by compound 5f, the measurement of cells with decreased ΔΨm were carried out by JC-1 assay kit on the instructions of the manual.
The JC-1 mitochondrial membrane potential assay kit (Keygene Biotech., Nanjing, China) was employed to measure mitochondrial depolarization in SMMC-7721 cells. The fluorescence probe JC-1 was used to detect the change of mitochondrial membrane potential. Briefly, cells cultured in six-well plates after indicated treatments by compound 5f were incubated with an equal volume of JC-1 staining solution (5 μg/mL) at 37 °C for 20 min and rinsed twice with PBS. Mitochondrial membrane potentials were monitored by determining the relative amounts of dual emissions from mitochondrial JC-1 monomers or aggregates using flow cytometry (Becton-Dickinson FACSCalibur, Franklin Lakes, NJ, USA). Mitochondrial membrane depolarization is indicated by an increase in the percentage of cells with low ΔΨm (green fluorescence, lower right quadrant) compared with cells with high ΔΨm (red fluorescence, upper right quadrant).

T1 sequence (P11388 whole entry): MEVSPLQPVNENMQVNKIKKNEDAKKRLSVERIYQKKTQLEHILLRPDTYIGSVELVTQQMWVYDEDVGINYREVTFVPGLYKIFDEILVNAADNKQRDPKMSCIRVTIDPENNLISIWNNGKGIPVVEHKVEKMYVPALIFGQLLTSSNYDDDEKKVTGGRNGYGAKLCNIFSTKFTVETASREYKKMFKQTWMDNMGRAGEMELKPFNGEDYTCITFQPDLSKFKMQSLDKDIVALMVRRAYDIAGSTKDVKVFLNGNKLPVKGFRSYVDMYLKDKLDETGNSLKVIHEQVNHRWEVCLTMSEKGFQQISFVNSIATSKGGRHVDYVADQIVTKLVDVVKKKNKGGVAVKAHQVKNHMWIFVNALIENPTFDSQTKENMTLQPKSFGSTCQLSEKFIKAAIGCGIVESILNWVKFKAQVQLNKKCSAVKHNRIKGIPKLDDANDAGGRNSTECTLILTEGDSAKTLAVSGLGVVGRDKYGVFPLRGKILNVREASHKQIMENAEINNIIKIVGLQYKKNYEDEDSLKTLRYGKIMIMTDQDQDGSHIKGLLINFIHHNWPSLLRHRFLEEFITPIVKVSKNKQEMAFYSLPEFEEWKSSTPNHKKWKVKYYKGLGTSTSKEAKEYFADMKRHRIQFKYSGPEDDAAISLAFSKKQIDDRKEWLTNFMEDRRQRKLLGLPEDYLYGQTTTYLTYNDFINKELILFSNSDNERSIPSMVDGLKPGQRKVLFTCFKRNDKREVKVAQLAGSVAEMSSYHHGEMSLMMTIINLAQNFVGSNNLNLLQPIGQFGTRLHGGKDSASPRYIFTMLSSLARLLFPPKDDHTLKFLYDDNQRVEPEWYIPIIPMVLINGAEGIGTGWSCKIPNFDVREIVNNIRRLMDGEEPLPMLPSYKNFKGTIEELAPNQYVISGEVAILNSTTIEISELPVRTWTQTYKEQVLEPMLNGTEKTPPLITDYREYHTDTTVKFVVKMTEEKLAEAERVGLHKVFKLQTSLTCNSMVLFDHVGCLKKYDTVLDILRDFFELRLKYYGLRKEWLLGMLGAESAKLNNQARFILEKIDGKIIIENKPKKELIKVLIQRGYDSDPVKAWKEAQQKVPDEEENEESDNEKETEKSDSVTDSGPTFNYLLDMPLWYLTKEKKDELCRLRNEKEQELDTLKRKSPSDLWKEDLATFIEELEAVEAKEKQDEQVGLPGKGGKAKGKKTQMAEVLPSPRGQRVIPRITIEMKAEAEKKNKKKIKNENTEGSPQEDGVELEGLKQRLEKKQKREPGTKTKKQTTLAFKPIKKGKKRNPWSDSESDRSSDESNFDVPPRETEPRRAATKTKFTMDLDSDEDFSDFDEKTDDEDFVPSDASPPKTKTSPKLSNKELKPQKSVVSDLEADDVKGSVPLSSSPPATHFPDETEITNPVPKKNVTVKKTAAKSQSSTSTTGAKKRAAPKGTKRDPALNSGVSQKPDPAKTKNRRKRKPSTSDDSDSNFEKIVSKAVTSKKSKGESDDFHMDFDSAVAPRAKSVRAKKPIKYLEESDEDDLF

Cc1ccc2[nH]c3c(c2c1)C[C@@]1(C)C(CC[C@]2(C)C1CC=C1C4[C@@H](C)[C@H](C)CC[C@]4(C(=O)NCCCN4CCN(C)CC4)CC[C@]12C)C3(C)C (stereo partly drawn) [5f, N-(3-(4-Methylpiperazin-1-yl)propyl)-5′-methyl-1′H-ursa-2,12-dieno[3,2-b]indol-28-carboxamide]
IC50 (SMMC-7721 cells [1]): 0.56 ± 0.08 µM
IC50 (SMMC-7721 cells [1]; Homo sapiens, SMMC-7721, 48 h): ~1 µM
IC50 (HepG2 cells): 0.91 ± 0.13 µM
IC50 (HepG2 cells; Homo sapiens, HepG2, 48 h): ~1 µM
inhibition at 20 µM (Human Topoisomerase IIα; 20 μM compound, read-out: Topo II Inhibition (%) 20 μM): 43.2%
inhibition at 100 µM (Human Topoisomerase IIα; 100 μM compound, read-out: Topo II Inhibition (%) 100 μM): 83.5%
cells with elevated ROS levels (% relative ROS raised cells) (SMMC-7721 cells [2]; 0.3 μM): 9.89%
cells with elevated ROS levels (% relative ROS raised cells) (SMMC-7721 cells [2]; 0.6 μM): 19.84%
cells with elevated ROS levels (% relative ROS raised cells) (SMMC-7721 cells [2]; 1.2 μM): 34.61%
percentage of cells with low ΔΨm (SMMC-7721 cells [3]; 0.3 μM): 7.43%
percentage of cells with low ΔΨm (SMMC-7721 cells [3]; 0.6 μM): 16.28%
percentage of cells with low ΔΨm (SMMC-7721 cells [3]; 1.2 μM): 32.34%
